Experimental data taken from ChEMBL document CHEMBL3525952, “A Baeyer-Villiger oxidation specifically catalyzed by human flavin-containing monooxygenase 5” (Drug Metab Dispos, 2011).

Legend:
[1] = Retention time of the compound by HPLC analysis; format: physicochemical
[2] = target: T1, Flavin-containing monooxygenase 5 (Homo sapiens, UniProt P49326); assay: Drug level assessed as human recombinant FMO5-mediated compound formation from 10 uM ER-879819 in presence NADPH after 60 mins by LC-MS/MS method; format: ADME; conditions: recombinant enzyme, 1 h
T1 sequence (P49326 whole entry): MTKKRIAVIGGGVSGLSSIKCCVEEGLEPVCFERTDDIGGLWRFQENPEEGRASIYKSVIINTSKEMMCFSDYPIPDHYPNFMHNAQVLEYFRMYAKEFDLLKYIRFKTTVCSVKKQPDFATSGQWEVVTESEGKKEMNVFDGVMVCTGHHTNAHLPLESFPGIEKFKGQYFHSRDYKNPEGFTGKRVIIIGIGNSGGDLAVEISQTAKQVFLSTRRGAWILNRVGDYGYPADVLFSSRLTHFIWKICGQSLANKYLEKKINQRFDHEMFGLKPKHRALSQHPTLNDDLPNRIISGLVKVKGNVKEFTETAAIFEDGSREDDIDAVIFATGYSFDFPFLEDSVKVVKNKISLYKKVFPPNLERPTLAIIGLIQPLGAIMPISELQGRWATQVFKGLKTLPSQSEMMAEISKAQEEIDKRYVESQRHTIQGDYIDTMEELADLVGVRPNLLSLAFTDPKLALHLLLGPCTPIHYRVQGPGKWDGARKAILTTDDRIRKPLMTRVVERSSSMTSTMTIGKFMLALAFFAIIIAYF

[3] = target: T1, Flavin-containing monooxygenase 5; assay: Drug level assessed as human recombinant FMO5-mediated compound formation from 10 uM ER-879819 in presence NADH after 60 mins by LC-MS/MS method; format: ADME; conditions: recombinant enzyme, 1 h
[4] = Drug level in dog hepatocytes treated with 50 uM E7016 after 120 mins in presence of NADPH by LC-MS/MS method; format: ADME, cell-based, Canis lupus familiaris, Hepatocyte; conditions: 2 h
Hepatocyte [5] = assay: Drug level in rat hepatocytes treated with 50 uM E7016 after 120 mins in presence of NADPH by LC-MS/MS method; format: ADME, cell-based; conditions: 2 h
Hepatocyte [6] = assay: Drug level in human hepatocytes treated with 50 uM E7016 after 120 mins in presence of NADPH by LC-MS/MS method; format: ADME, cell-based; conditions: 2 h
[7] = Drug level in dog liver S9 fraction treated with 50 uM E7016 after 60 mins in presence of NAD+ by LC-MS/MS method; format: ADME, subcellular, Canis lupus familiaris; conditions: s9, 1 h
[8] = Drug level in dog liver S9 fraction treated with 50 uM E7016 after 60 mins in presence of NADP+ by LC-MS/MS method; format: ADME, subcellular, Canis lupus familiaris; conditions: s9, 1 h
[9] = Drug level in human liver S9 fraction treated with 50 uM E7016 after 60 mins in presence of NAD+ by LC-MS/MS method; format: ADME, subcellular; conditions: s9, 1 h
[10] = Drug level in human liver S9 fraction treated with 50 uM E7016 after 60 mins in presence of NADP+ by LC-MS/MS method; format: ADME, subcellular; conditions: s9, 1 h
[11] = target: T1, Flavin-containing monooxygenase 5; assay: Drug metabolism assessed as human recombinant FMO5-mediated compound formation from 50 uM E7016 in presence of rat liver cytosolic fractions after 60 mins by LC-MS/MS method; format: ADME, tissue-based; conditions: recombinant enzyme, 1 h
[12] = target: T1, Flavin-containing monooxygenase 5; assay: Drug metabolism assessed as human recombinant FMO5-mediated compound formation from 50 uM E7016 in presence of human liver cytosolic fractions after 60 mins by LC-MS/MS method; format: ADME, tissue-based; conditions: recombinant enzyme, 1 h
[13] = target: T1, Flavin-containing monooxygenase 5; assay: Drug metabolism assessed as human recombinant FMO5-mediated compound formation from 50 uM E7016 in presence of dog liver cytosolic fractions after 60 mins by LC-MS/MS method; format: ADME, tissue-based; conditions: recombinant enzyme, 1 h
Liver microsome [14] = assay: Drug level in dog liver microsomes treated with 10 uM ER-879819 after 60 mins in presence of NADH by LC-MS/MS method; format: ADME, Canis lupus familiaris; conditions: 1 h
Liver microsome [15] = assay: Drug level in human liver microsomes treated with 10 uM ER-879819 after 60 mins in presence of NADH by LC-MS/MS method; format: ADME; conditions: 1 h

| Retention_time [1] | Drug metabolism [2] | Drug metabolism [3] | Drug metabolism [4] | Drug metabolism (Hepatocyte [5]) | Drug metabolism (Hepatocyte [6]) | Drug metabolism [7] | Drug metabolism [8] | Drug metabolism [9] | Drug metabolism [10] | Drug metabolism [11] | Drug metabolism [12] | Drug metabolism [13] | Drug metabolism (Liver microsome [14]) | Drug metabolism (Liver microsome [15]) | SMILES |
| --- | --- | --- | --- | --- | --- | --- | --- | --- | --- | --- | --- | --- | --- | --- | --- |
| 10.7 min | – | – | – | – | – | – | – | – | – | – | – | – | – | – | Cc1ccc2c(c1)-c1n[nH]c(=O)c3cccc(c13)O2 |
| – | metabolite_detected | metabolite_detected | metabolite_detected | metabolite_detected | metabolite_detected | metabolite_detected | metabolite_detected | metabolite_detected | metabolite_detected | metabolite_detected | metabolite_detected | metabolite_detected | metabolite_detected | metabolite_detected | O=C(O)CCN(CCO)Cc1ccc2c(c1)-c1n[nH]c(=O)c3cccc(c13)O2 |
